Source: ChEMBL document CHEMBL1148029, “Synthesis and radiopharmacological characterization of 2beta-carbo-2'-[18F]fluoroethoxy-3beta-(4-bromo-phenyl)tropane ([18F]MCL-322) as a PET radiotracer for imaging the dopamine transporter (DAT)” (Bioorg Med Chem, 2007)

Columns and labels:
[1] = tested on: Blood; test: Biodistribution in Wistar rat blood at 300 uCi, iv after 240 mins; assay type: ADME, organism-based; details: in vivo, 4 h
[2] = tested on: Cortex; test: Biodistribution in Wistar rat cortex at 300 uCi, iv after 120 mins; assay type: ADME, organism-based; details: in vivo, 2 h
[3] = tested on: Harderian gland; test: Biodistribution in Wistar rat harderian glands at 300 uCi, iv after 120 mins; assay type: ADME, organism-based; details: in vivo, 2 h
[4] = Biodistribution in Wistar rat fat at 300 uCi, iv after 5 mins; assay type: ADME, organism-based, Adipose tissue; details: in vivo
[5] = tested on: Adrenal; test: Biodistribution in Wistar rat adrenal gland at 300 uCi, iv after 20 mins; assay type: ADME, organism-based, Adrenal tissue; details: in vivo
[6] = tested on: Heart; test: Biodistribution in Wistar rat heart at 300 uCi, iv after 120 mins; assay type: ADME, organism-based; details: in vivo, 2 h
[7] = tested on: Femur; test: Biodistribution in Wistar rat femur at 300 uCi, iv after 5 mins; assay type: ADME, organism-based; details: in vivo
[8] = tested on: Heart; test: Biodistribution in Wistar rat heart at 300 uCi, iv after 240 mins; assay type: ADME, organism-based; details: in vivo, 4 h
[9] = tested on: Blood; test: Biodistribution in Wistar rat blood at 300 uCi, iv after 20 mins; assay type: ADME, organism-based; details: in vivo

CN1C2CCC1C(C(=O)OCC[18F])C(c1ccc(Br)cc1)C2 (centres undefined)
Drug uptake [1]: 0.03 % ID/g | Drug uptake [2]: 0.45 % ID/g | Drug uptake [3]: 1.82 % ID/g | Drug uptake [4]: 4.64 % ID/g | Drug uptake [5]: 1.21 % ID/g | Drug uptake [6]: 0.12 % ID/g | Drug uptake [7]: 0.59 % ID/g | Drug uptake [8]: 0.07 % ID/g | Drug uptake [9]: 0.07 % ID/g
